Experimental findings from patent US12599596B2, “Anti-tumor pharmaceutical composition based on immune checkpoint blockade and use thereof” (Shanghai Hui Tian Jin Ze Biotech Co., Ltd., priority 2023, dated 2026) are described below.

Where a name gives a salt, the structure may show the parent alone.

Assay [1] has as its system MC38 colorectal cancer cells. Put plainly: MC38 subcutaneous tumor model in C57BL/6 mice, Embodiment 2. In kind it is in vivo. The following applies: for Tumor volume: CBD 100 mg/kg, PAR 10 mg/kg, vitamin E 50 mg/kg, thymosin 2 mg/kg. How it is done:
• 1. MC38 colorectal cancer cells were inoculated into 6-week-old female C57BL/6 mice (1×10^6 cells/mouse) to establish a subcutaneous tumor model. After the tumor volume reached 50 mm^3, the mice were grouped and administered according to the following pharmaceutical combinations: (1) control group (no administration), (2) anti-PD-1 ([…]/time) group, (3) anti-CTLA4 ([…]/time) group, (4) CBD (100 mg/kg) group, (5) CBD (100 mg/kg)+anti-CTLA4 ([…]/time) group, (6) PAR (10 mg/kg) group, (7) PAR (10 mg/kg)+anti-CTLA4 ([…]) group, (8) CBD (100 mg/kg)+PAR (10 mg/kg) group, (9) vitamin E(a-tocopherol) (50 mg/kg)+thymosin (2 mg/kg) group, (10) CBD (100 mg/kg)+vitamin E(α-tocopherol) (50 mg/kg)+thymosin (2 mg/kg) group, (11) PAR (10 mg/kg)+vitamin E(α-tocopherol) (50 mg/kg)+thymosin (2 mg/kg), (12) PAR (10 mg/kg)+CBD (100 mg/kg)+vitamin E(α-tocopherol) (50 mg/kg)+thymosin (2 mg/kg) group, (13) CBD (100 mg/kg)+vitamin E(α-tocopherol) (50 mg/kg)+thymosin (2 mg/kg)+anti-CTLA4 ([…]/time) group, (14) PAR (10 mg/kg)+vitamin E(α-tocopherol) (50 mg/kg)+thymosin (2 mg/kg)+anti-CTLA4 ([…]) group, and (15) CBD (100 mg/kg)+PAR (10 mg/kg)+vitamin E(α-tocopherol) (50 mg/kg)+thymosin (2 mg/kg)+anti-CTLA4 ([…]/time) group. The tumor weight and volume, and body weight of the mice were monitored once every 2 days. The tumor volume was calculated as follows: tumor volume (mm^3)=0.5×(length)x(width)^2. The mice were sacrificed 14 days after drug administration, and the tumors were dissected.
The dissolving mode of the pharmaceutical composition was as follows: the pharmaceutical composition was dissolved in 10% DMSO+corn oil, the mice were gavaged with the pharmaceutical composition at 100 pl/mouse, and the mice in the control group were injected with the same volume of the solvent. • 2. MC38 colorectal cancer cells were inoculated into 6-week-old female nude mice (1×10^6 cells/mouse) to establish a subcutaneous tumor model. After the tumor volume reached 50 mm^3, the mice were grouped and administered according to the following pharmaceutical combinations: (1) control group, (2) CBD (100 mg/kg)+vitamin E(α-tocopherol) (50 mg/kg)+thymosin (2 mg/kg) group, (3) PAR (10 mg/kg)+vitamin E(α-tocopherol) (50 mg/kg)+thymosin (2 mg/kg) group, and (4) PAR (10 mg/kg)+CBD (100 mg/kg)+vitamin E(α-tocopherol) (50 mg/kg)+thymosin (2 mg/kg) group. The tumor weight and volume, and the body weight of the mice were monitored once every 2 days. The tumor volume was calculated as follows: tumor volume (mm^3)=0.5×(length)x(width)^2. The mice were sacrificed 14 days after drug administration, and the tumors were dissected. (II) Experimental Results 1.

Another assay concerns PD-L1 in tumor cells. Put plainly: Expression of PD-L1 in tumor cells with paroxetine hydrochloride. The following applies: no method or data given. Format: cell-based.
A further assay deals with MC38 colon cancer cells. Put plainly: MC38 subcutaneous tumor model in C57BL/6 mice, Embodiment 5. In kind it is in vivo. To be noted: for Tumor volume: CBD 100 mg/kg, PAR 5 mg/kg, vitamin E 50 mg/kg; for therapeutic / tumor inhibition effect in words: normal mice, Embodiment 5, comparison between groups. As to the method: MC38 colon cancer cells were inoculated into 6-week-old female C57BL/6 mice (1×10^6 cells/mouse) to establish a subcutaneous tumor model. After the tumor volume reached 50 mm^3, the mice were grouped and administered with the following pharmaceutical combinations: (1) control group (no drug administration), (2) anti-PD-1 ([…] per time) group, (3) vitamin E(α-tocopherol) (50 mg/kg) group, (4) CBD (100 mg/kg) group, (5) CBD (100 mg/kg)+vitamin E(α-tocopherol) (50 mg/kg) group, (6) PAR (5 mg/kg) group, (7) PAR (5 mg/kg)+vitamin E(α-tocopherol) (50 mg/kg) group, (8) CBD (100 mg/kg)+PAR (5 mg/kg) group, and (9) PAR (5 mg/kg)+CBD (100 mg/kg)+vitamin E(α-tocopherol) (50 mg/kg) group.
The tumor weight, tumor volume, and mouse body weight were monitored once every 2 days. The tumor volume was calculated as follows: tumor volume (mm^3)=0.5×(length)×(width)^2. The mice were sacrificed 14 days after drug administration, and the tumors were dissected.
The dissolving mode of the pharmaceutical composition was as follows: the pharmaceutical composition was dissolved in 10% DMSO+corn oil, the mice were gavaged with the pharmaceutical composition at 100 μl/mice, and the mice in the control group were injected with the same volume of the solvent.

As to `Fc1ccc([C@@H]2CCNC[C@H]2COc2ccc3c(c2)OCO3)cc1` [PAR, paroxetine hydrochloride], the Tumor volume was determined as 0 mm^3 in assay [1] (Day 0); 43.63 mm^3 in assay [1] (Day 2); 68.09 mm^3 in assay [1] (Day 4); 83.54 mm^3 in assay [1] (Day 6); 177.63 mm^3 in assay [1] (Day 8); 263.45 mm^3 in assay [1] (Day 10). The Tumor volume is 393.48 mm^3 in assay [1] (Day 12); 510.89 mm^3 in assay [1] (Day 14); 608.61 mm^3 in assay [1] (Day 16); 0 mm^3 in the assay on MC38 colon cancer cells (Day 0); 44.74 mm^3 in the assay with MC38 colon cancer cells (Day 4); 61.50 mm^3 in the assay on MC38 colon cancer cells (Day 6). Besides, the Tumor volume with MC38 colon cancer cells (Day 8) was determined as 85.83 mm^3; with MC38 colon cancer cells (Day 10), 136.25 mm^3; with MC38 colon cancer cells (Day 12), 176.62 mm^3; with MC38 colon cancer cells (Day 14) it was 262.06 mm^3; in the assay with MC38 colon cancer cells (Day 16), 302.90 mm^3. For the same compound, the “therapeutic / tumor inhibition effect in words” value in assay [1] (normal mice, Embodiment 2, comparison between groups) is reported as “equivalent therapeutic effects”; in the assay with MC38 colon cancer cells, “equivalent therapeutic effects”. In the assay with PD-L1 in tumor cells, the “expression of PD-L1 in tumor cells” value was “reduces the expression of PD-L1”.
On to `Cc1c(C)c2c(c(C)c1O)CC[C@@](C)(CCC[C@H](C)CCC[C@H](C)CCCC(C)C)O2` [VE, a-tocopherol], for which the Tumor volume is 0 mm^3 in the assay on MC38 colon cancer cells (Day 0); 58.77 mm^3 in the assay on MC38 colon cancer cells (Day 4); 124.89 mm^3 in the assay with MC38 colon cancer cells (Day 6); 191.75 mm^3 with MC38 colon cancer cells (Day 8); 284.59 mm^3 with MC38 colon cancer cells (Day 10); 459.67 mm^3 with MC38 colon cancer cells (Day 12). Besides, the values for the Tumor volume in the assay with MC38 colon cancer cells (Day 14) and in the assay on MC38 colon cancer cells (Day 16) were 532.81 mm^3 and 624.47 mm^3, respectively. Moreover, the “therapeutic / tumor inhibition effect in words” value in the assay on MC38 colon cancer cells is “no significant therapeutic effect”.
